# Where two headings read alike, the source gives them in different places.
# What was measured:
# M. smegmatis ATCC 19420 = assay: MIC broth microdilution (NCCLS), fastidious bacteria; format: cell-based, Mycobacterium smegmatis; conditions: Mycolicibacterium smegmatis, ATCC19420, read after 48 hours
# Method: (§1) Minimal Inhibitory Concentration (MIC) Determination. Bacteria (primary strain panel, TABLE 1). Susceptibility tests were performed following the recommendations from the National Committee for Clinical Standards (NCCLS). The MICs were determined by a broth microdilution technique using a final volume of 100 μl of cation-adjusted Mueller Hinton Broth (MHBCA) and a bacterial inoculum of 10^5-10^6 Colony Forming Units (CFU)/ml. The inocula were verified and precisely determined by applying 10-μl drops of 10-fold dilutions onto Triptic Soy Agar plates. The CFU were counted after an incubation of 24 h at 35° C. Any experiment showing an inoculum that was more or less than 10^5-10^6 CFU/ml was rejected. Control antibiotics and test compounds were prepared at a concentration equivalent to 2-fold the highest desired final concentration. Compounds were then diluted directly in the 96-well microtiter plates by serial 2-fold dilutions using a multichannel pipette. Microtiter plates were incubated during 24 h at 35° C. and growth was recorded by using a microtiterplate reader at 650 nm as well as by visual observation. The MIC was defined as the lowest concentration of compound yielding no visible growth. […] Fastidious bacteria. The medium used for Listeria monocytogenes, Neisseria meningitidis, and Campylobacter jejuni was MHBCA containing 2% laked horse blood. The medium used for Haemophilus influenzae and Branhamella (Moraxella) catarrhalis was HTM as recommended by the NCCLS. Cultures of these fastidious bacteria were incubated at 35° C. in a 5% CO2 atmosphere. […] The medium used for Bacteroides fragilis was Wilkins Chalgren broth and growth was allowed under an anaerobic atmosphere at 35° C. for 48 hours.
# [1] = tested on: Y. enterocolytica ATCC 23715; assay: MIC broth microdilution (NCCLS); format: cell-based, Yersinia enterocolytica; conditions: Yersinia, ATCC23715, read-out: MIC
# Method: as §1
# E. coli ATCC 25922 = assay: MIC broth microdilution (NCCLS); format: cell-based, Escherichia coli
# Method: as §1
# [2] = tested on: S. epidermidis ATCC 12228; assay: MIC broth microdilution (NCCLS); format: cell-based, Staphylococcus epidermidis; conditions: Staphylococcus epidermidis, ATCC12228; S. epidermidis ATCC 12228; read-out: MIC
# Method: as §1
# E. faecium VanA = assay: MIC broth microdilution, antibiotic resistant strain panel; format: cell-based; conditions: Enterococcus faecium
# Method: as §1
# (§2) Finally, compounds were also tested against populations of various clinical strains (antibiotic resistant strain panel, TABLE 1).
# E. faecalis ATCC 29212 = assay: MIC broth microdilution (NCCLS); format: cell-based, Enterococcus faecalis; conditions: Enterococcus faecalis, ATCC29212; E. faecalis ATCC 29212; read-out: MIC
# Method: as §1
# [3] = tested on: S. saprophyticus ATCC 15305; assay: MIC broth microdilution (NCCLS); format: cell-based, Staphylococcus saprophyticus; conditions: Staphylococcus saprophyticus, ATCC15305; S. saprophyticus ATCC 15305; read-out: MIC
# Method: as §1
# S. aureus MRSA COL = assay: MIC broth microdilution (NCCLS); format: cell-based, Staphylococcus aureus; conditions: Staphylococcus aureus, MRSA, S. aureus MRSA COL; read-out: MIC
# Method: as §1, with “hours. […]” for “hours.”
# S. aureus ATCC 29213 = assay: MIC broth microdilution (NCCLS); format: cell-based, Staphylococcus aureus; conditions: Staphylococcus aureus, ATCC29213; S. aureus ATCC 29213; read-out: MIC
# Method: as §1
# A. baumannii ATCC 19606 = assay: MIC broth microdilution (NCCLS); format: cell-based, Acinetobacter baumannii; conditions: Acinetobacter baumannii, ATCC19606, read-out: MIC
# Method: as §1
# [4] = tested on: L. monocytogenes ATCC 13932; assay: MIC broth microdilution (NCCLS), fastidious bacteria; format: cell-based; conditions: Listeria monocytogenes, ATCC13932, MHBCA with 2% laked horse blood, 5% CO2
# Method: as §1
# E. faecium ATCC 35667 = assay: MIC broth microdilution (NCCLS); format: cell-based, Enterococcus faecium; conditions: Enterococcus faecium, ATCC35667, E. faecium ATCC 35667; read-out: MIC
# Method: as §1
# E. coli Ec118c (EIEC) = assay: MIC broth microdilution, E. coli strains; format: cell-based; conditions: Escherichia coli, pathotype EIEC
# Method: as §1, §2
# E. coli Ec119c (EIEC) = assay: MIC broth microdilution, E. coli strains; format: cell-based; conditions: Escherichia coli, pathotype EIEC
# Method: as §1, §2
# [5] = tested on: E. coli ATCC 35150 (O157:H7); assay: MIC broth microdilution, E. coli strains; format: cell-based; conditions: Escherichia coli, ATCC35150
# Method: as §1, §2
# E. coli Ec027c (EIEC) = assay: MIC broth microdilution, E. coli strains; format: cell-based; conditions: Escherichia coli, pathotype EIEC
# Method: as §1, §2
# E. coli Ec117c (EIEC) = assay: MIC broth microdilution, E. coli strains; format: cell-based; conditions: Escherichia coli, pathotype EIEC
# Method: as §1, §2
# E. coli Ec022c (EIEC) = assay: MIC broth microdilution, E. coli strains; format: cell-based; conditions: Escherichia coli, pathotype EIEC
# Method: as §1, §2
# [6] = tested on: E. coli d25-ALR-pen14 (O157:H7); assay: MIC broth microdilution, E. coli strains; format: cell-based; conditions: Escherichia coli
# Method: as §1, §2
# [7] = tested on: E. coli d4-OLR-pen10 (O157:H7); assay: MIC broth microdilution, E. coli strains; format: cell-based; conditions: Escherichia coli
# Method: as §1, §2
# B. fragilis ATCC 25285 = assay: MIC broth microdilution (NCCLS), anaerobic; format: cell-based; conditions: Bacteroides fragilis, ATCC25285; B. fragilis ATCC 25285; Wilkins Chalgren broth, anaerobic, 48 hours; read-out: MIC
# Method: as §1
# [8] = Escherichia coli, ATCC25922, E. coli ATCC 25922 (Reference), read-out: MIC
smiles,measurement,setting,value
CO[C@H]1/C=C/O[C@@]2(C)Oc3c(C)c(O)c4c(O)c(c(/C=N/N5CCN(C)CC5)c(O)c4c3C2=O)NC(=O)/C(C)=C\C=C\[C@H](C)[C@H](O)[C@@H](C)[C@@H](O)[C@@H](C)[C@H](OC(C)=O)[C@@H]1C [Rifampicin],MIC,M. smegmatis ATCC 19420,8 µg/mL
same,MIC,[1],8 µg/mL
same,MIC,E. coli ATCC 25922; [8],8 µg/mL
same,MIC,[2],0.004 to 0.008 µg/mL
same,MIC,E. faecium VanA,> 128 µg/mL
same,MIC,E. faecalis ATCC 29212,0.5 to 1 µg/mL
same,MIC,[3],0.03 µg/mL
same,MIC,S. aureus MRSA COL,0.008 to 0.015 µg/mL
same,MIC,S. aureus ATCC 29213,0.008 to 0.015 µg/mL
same,MIC,A. baumannii ATCC 19606,4 µg/mL
same,MIC,[4],0.06 µg/mL
same,MIC,E. faecium ATCC 35667,32 µg/mL
CN(C)[C@@H]1C(O)=C(C(N)=O)C(=O)[C@@]2(O)C(O)=C3C(=O)c4c(O)cccc4[C@@](C)(O)[C@H]3C[C@@H]12 [Tetracycline],MIC,E. coli Ec118c (EIEC),4 µg/mL
same,MIC,E. coli Ec119c (EIEC),> 32 µg/mL
same,MIC,[5],2 µg/mL
same,MIC,E. coli Ec027c (EIEC),> 32 µg/mL
same,MIC,E. coli Ec117c (EIEC),> 32 µg/mL
same,MIC,E. coli Ec022c (EIEC),2 µg/mL
same,MIC,[6],> 32 µg/mL
same,MIC,[7],> 32 µg/mL
same,MIC,B. fragilis ATCC 25285,0.25 µg/mL
same,MIC,[1],> 32 µg/mL
same,MIC,E. coli ATCC 25922; E. coli ATCC 25922 (Reference),2 µg/mL
same,MIC,E. coli ATCC 25922; [8],1 to 2 µg/mL
same,MIC,E. faecalis ATCC 29212,16 to 32 µg/mL
same,MIC,[3],1 µg/mL
same,MIC,S. aureus MRSA COL,2 µg/mL
same,MIC,S. aureus ATCC 29213,0.5 to 1 µg/mL
same,MIC,A. baumannii ATCC 19606,16 µg/mL
